Read-outs that look alike come from different tables or passages of the source.
Tested on: CK2 activity in cell extracts
Details: then lysed

For CC(C)COC(=O)c1[nH]c2ccc(F)cc2c1-c1cn(CC2CCN(CCNS(=O)(=O)c3ccc(CC(C)C)cc3)CC2)nn1 [AB668], the IC50 (786-O cells treated with the inhibitor) was 340 ± 70 nM and the IC50 (HEK293 cells treated with the inhibitor) was 600 ± 110 nM.

— article doi:10.1101/2022.12.16.520736v1 (biorxiv, 2022)
